Structure (SMILES) | melting point
O=C(O)C(=O)c1ccc(OCCOc2ccc3ccccc3c2)c(F)c1 | 168 to 169 °C
Cc1cccc(N2CCN(CCc3ccc(NC(=O)NCCCCl)cc3)CC2)c1 | 168 °C
Cc1nc(-c2cnc(Cc3ccccc3)o2)sc1C(=O)NCc1ccccc1 | 141 to 142 °C
CC(C)(C)OC(=O)Cc1c(Cl)nc(N)nc1C#N | 107 to 109 °C
OCCCNc1cc(Nc2ccc(N3CCOCC3)cc2)ncn1 | 198 to 199 °C
CCc1[nH]cc2c1-c1ccc(Cl)cc1C(c1ccccc1Cl)=NC2 | 251 to 253 °C
CCOC(=O)Cc1c(C(=O)OCC)sc2c1cc(C(=O)OCC)n2CC(=O)OCC | 190 °C
CN1C(O)=C(C(=O)Nc2ccc(Br)cc2)c2cscc2S1(=O)=O | 138 to 140 °C
COCOc1ccc(C(C)=O)c(O)c1 | 38 to 39 °C
Cn1nnc(-c2ccc3c(c2)c(C2CCN(CCN4CCNC4=O)CC2)cn3-c2ccncc2)n1 | 204 to 206 °C
Cc1ccc(-c2c(C3CCN(C)CC3)[nH]c(=O)c3ccccc23)cc1 | 244 to 246 °C
CCS(=O)(=O)Nc1cc(-c2nsc(C(F)(F)F)c2Cl)c(Cl)cc1Cl | 135 °C
O=C1c2ccccc2C(=O)N1c1ccc(Cl)cn1 | 153 to 155 °C
COC(=O)c1ccc(-c2noc(C)n2)s1 | 134 to 136 °C
CCCCCCCCCCCCCCCCCCOc1ccc(O)c(C(=O)N(N)C(=O)OCCCCCCCC)c1 | 85 °C
FC(F)(F)c1cc(Cl)c(-n2cccn2)c(Cl)c1 | 83 to 85 °C
COC(=O)c1cc(-c2cc(-c3ccccc3O)nc(NC(=O)c3cccs3)c2C#N)ccc1OC | 271 to 273 °C
CCCCCCCc1ccc(C(=O)Nc2ccc3oc(Nc4ccc(CC)cc4)nc3c2)cc1 | 245 to 246 °C
O=C(O)CCC(=O)Nc1ccc2oc(-c3ccc(O)cc3)c(O)c(=O)c2c1 | 256 to 257 °C
COc1cc(Br)cc2c1OCCC2=O | 137 °C
CCCCCc1cc2c(nc(O)n2CCCNS(C)(=O)=O)c(N)n1 | 174 to 176 °C
COc1ccc2cc(-c3cccc(C=O)c3)cc(CCNC(C)=O)c2c1 | 123 to 125 °C
CNC(=NS(C)(=O)=O)NCCSCc1csc(CN(C)C)n1 | 95 to 97 °C
CCCCNC(=O)NCCc1nc(-c2ccc(-c3ccccc3)cc2)c[nH]1 | 178 °C
O=c1[nH]c(-c2c[nH]c3ccccc23)nc2ccc(N3CCOCC3)cc12 | > 300 °C
COc1c([N+](=O)[O-])cc(C)c(C)c1[N+](=O)[O-] | 67.3 to 67.6 °C

Structure (SMILES) | melting point
COc1ccc2c(ncn2C(=O)OC(C)(C)C)c1CBr | 127 to 129 °C
O=C(Nc1ccc(CO)cc1)C1=Cc2cc(-c3ccccc3)ccc2CC1 | 207 to 210 °C
Cc1cc([N+](=O)[O-])ccc1NC(=O)C1=C(O)N(C)S(=O)(=O)c2cscc21 | 186 to 188 °C
Cc1c(N2CC(O)C2)c(F)cc2c(=O)c(C(=O)O)cn(-c3cc(N)c(F)cc3F)c12 | 206 to 208 °C
Cn1c(COc2ccc(C#N)cc2)nc2nc(CO)ccc21 | 172 °C
CC(=O)Oc1cc(C)cc(C(=O)N[C@@H](Cc2ccccc2)[C@H](OC(C)=O)C(=O)O)c1C | 185 to 186 °C
COc1ccc2c(c1)nnc1c(C)nc(-c3cc(Cl)ccc3Cl)n12 | 144 to 147 °C
COc1ccc(-c2coc(C(=O)O)cc2=O)cc1 | 232 to 234 °C
C#CCOc1ccc2nc(N)c3nc4n(c3c2c1)C(C)COC4 (configuration not stated) | 184 to 186 °C
CCNC(=O)Nc1c(Cl)cccc1[Si](C)(C)C | 161 to 163 °C
Cc1cc(Oc2ncc(C(F)(F)F)cc2Cl)nn1C(=O)NCC(C)C | 45 to 47 °C
Nc1cccc(C2(O)CCOCC2)c1 | 154 to 155 °C
CCOC(=O)c1cc2cc(OC(F)(F)F)cc(NS(=O)(=O)c3cccs3)c2[nH]1 | 192 to 193 °C
CC(C)(C)OC(=O)N1CCc2c(n(CCOc3ccccc3)c3c(Cl)c(Cl)ccc23)CC1 | 138 to 140 °C
NC1C(=O)N2C1SC1(CCOCC1)C2C(=O)O (configuration not stated) | 189 to 192 °C
O=c1c(Cc2ccccc2)cn(-c2cccc(Cl)c2)c2ncccc12 | 170 to 171 °C
CCOc1cc(C(=CC#N)c2ccc(OC)c(F)c2)ccc1OC | 122 to 124 °C
CCOn1c(CC)n[nH]c1=O | 93 °C
CC(=O)Nc1ccc(Oc2c(-c3ccc(S(C)(=O)=O)cc3)cnn(CC(F)(F)F)c2=O)cc1 | 215 to 216 °C
CC#CCOc1ccc(S(=O)(=O)C(C(=O)NO)c2cccc(Cl)c2)cc1 (configuration not stated) | 50 °C
CCOC(=O)C=C(C)Oc1ccc(C23CC4CC(CC(C4)C2)C3)cc1 | 97 to 98 °C
CC(=O)OCC1COc2c(ccc(F)c2F)N1 (configuration not stated) | 73 to 74 °C
C=Cc1c(C(=O)OC)cccc1[N+](=O)[O-] | 44 to 45 °C
CCn1cc(Nc2nc(Br)cn(C)c2=O)cn1 | 138 to 140 °C
COc1ccc(C(=O)N2CC[C@@H](O)C2=O)cc1O | 129 to 131 °C
CC(C)(C)OC(=O)C(Br)c1ccc(Cl)c(Cl)c1 (racemic) | 88 °C

Structure (SMILES) | melting point
O=C(c1nc(-c2ccccc2)nc2ccccc12)N1CCOCC1 | 148 °C
Cn1nc(-c2ccccc2)c(C2CCCCC2)c1N | 212 to 214 °C
O=C(O)CN1C(=O)C(=Cc2ccc(OCCc3ccccc3)c(OC(c3ccccc3)C(F)(F)F)c2)SC1=S (configuration not stated) | 168 °C
O=C(O)c1cc(=O)c2cc(F)ccc2o1 | 261 to 262 °C
Cc1cc(C(=O)c2ccccc2)ccc1NC(=O)C(C)(O)C(F)(F)F (configuration not stated) | 123 to 124 °C
CCn1c(=O)c2c(nc(/C=C/c3cc(OC)ccc3OC(=O)c3ccccc3)n2C)n(CC)c1=O | 254 to 255 °C
Cc1nc(N)c2nc3n(c2c1C)C(C)COC3 (configuration not stated) | 264 to 267 °C
CC1(C)Oc2ccc(C#N)cc2C(Nn2ccccc2=O)C1(C)O (configuration not stated) | 184 to 187 °C
CC(C)(C)OC(=O)N[C@@]1(C(=O)OC(C)(C)C)CC(=O)[C@H]2[C@H](C(=O)OC(C)(C)C)[C@H]21 | 144 to 146 °C
CCC(Cn1cncn1)(C(N)=O)c1ccc(Cl)cc1 (configuration not stated) | 139 to 140 °C
Cc1ccc(S(=O)(=O)C2=C(C(=O)OCC(C)C)C(=O)C=C(C(=O)OCC(C)C)C2=O)cc1 | 112 to 114 °C
NN(Cc1ccccc1[N+](=O)[O-])c1ccccc1 | 67 to 69 °C
CC1(C)CCC(C)(C)c2cc3cc(-c4ccc(C(=O)O)cc4)ccc3cc21 | 282 °C
CC(=O)NCC1CC(c2cc(F)c(F)c(F)c2)=NO1 (configuration not stated) | 136 to 137 °C
COCC(O)c1nc2cc(Cl)ccc2c(O)c1C(=O)Nc1nccs1 (configuration not stated) | > 270 °C
COCCON1C(=O)C(c2c(C)cc(C)cc2C)C(=O)C12CCN(N(C)C)CC2 (configuration not stated) | 108 °C
C[C@H]1N=C(c2ccccc2F)c2cc([N+](=O)[O-])ccc2NC1=O | 120 °C
COc1cc(N)c(SC)cc1OC | 72 to 74 °C
COCCCNc1cccc(Oc2ccc(-c3cn(C4CCOCC4)c4ncnc(N)c34)cc2)c1C#N | 205 to 207 °C
COCC(=O)N[C@H]1CC[C@H](Nc2nccc(-n3nnc4ccccc43)n2)CC1 | 234 to 235 °C
COC(=O)CCC(=O)SCC(=O)NC(C)=O | 111 to 113 °C
COc1cc2c(cc1F)C1(CO2)C(=O)Nc2ccccc21 (configuration not stated) | 222 to 225 °C
Nc1nc2ccccc2n[n+]1[O-] | 266 to 268 °C
Oc1cccc2c(Cl)ncnc12 | > 252 °C
CC(CO)c1ccc(-c2ccccc2)c(F)c1 (configuration not stated) | 61 to 63 °C
CN(C)S(=O)(=O)c1ccc2c(c1)S(=O)(=O)N=C1CCCN12 | 251 to 253 °C

Structure (SMILES) | melting point
CCCCCCCCCCCCCCCCCC(=O)N1CCCCc2nc(-c3ccccc3)sc21 | 38 to 40 °C
COc1cc(-c2nc3ccc(OCCN(C(C)C)C(C)C)cc3n2Cc2ccccc2C(F)(F)F)cc(OC)c1OC | 184 °C
COc1cccc(C(=O)O)c1OC(C)=O | 139 to 140 °C
O=C(c1cccs1)c1cnn2c(-c3cccc(-c4ccc(CNCCN5CCOCC5)cc4)c3)ccnc12 | 100 to 106 °C
Cc1nn(-c2ccccn2)c2c1C(=O)CC(C)(C)C2S(=O)(=O)c1ccccc1 (configuration not stated) | 165 to 166 °C
C=C(C)COc1ccc(C(=O)c2ccccc2)cc1 | 85 to 86.5 °C
COc1ccc(Cc2nc3n(c2Cc2ccc(OC)cc2)CCS3=O)cc1 (configuration not stated) | 190 to 191 °C
CC(C)(C)OC(=O)[C@@H](Cc1ccccc1)NC(=O)C1CN(c2ccc(C#N)cc2)C(=O)O1 (some centres not stated) | 72 °C
CCSc1c[nH]nc1C1=CCCN(C)C1 | 95 to 97 °C
CC(C)(Cc1ccccc1)C(NC(=O)c1ccncc1)Nc1c(Nc2cccnc2)c(=O)c1=O (configuration not stated) | 251 to 254 °C
CC(C)Cc1cc(NC(=O)c2nccnc2Cl)ccc1C(C(F)(F)F)C(F)(F)F | 128 to 129 °C
CC(C)c1c(Sc2ccc(O)cc2)n(C)c2ccccc12 | 89 to 90 °C
CCCCCCCCCCCCNC(=O)c1cc(-c2cc(Cl)cc(Cl)c2)c(OCC(=O)O)c(-c2cc(Cl)cc(Cl)c2)c1 | 139 to 144 °C
CN1CCC(C(O)(c2ccn(C)c2)c2ncc[nH]2)CC1 (configuration not stated) | 171 °C
Cc1ncccc1NC(=NC#N)NC(NC(=O)CCCc1cccs1)C(C)(C)C (configuration not stated) | 66 to 68 °C
COC(=O)N=C(NC(=O)OC)Nn1cccc1C(=O)OC | 160 °C
CS(=O)(=O)c1ccc(-c2cc(C=O)cn2-c2ccc(F)cc2)cc1 | 98 to 100 °C
O=S(=O)(CCN1CCCCC1)Nc1cc(C(c2cc(F)ccc2F)S(=O)(=O)c2ccc(Cl)cc2)c(Cl)cn1 (configuration not stated) | 200 to 203 °C
COC(=O)COc1cc(C(=O)OC)nc2ccccc12 | 121 to 123 °C
COc1cc2c(cc1Br)-c1c(-c3cccs3)c3c(n1CC2)C(=O)N(C)C(C)(C)CC3 | 173 to 175 °C
O=C1CCN(C(=S)Nc2ccc(Cl)cc2)N1c1ccccc1 | 136 to 139 °C
CCOC(=O)Nc1cc(C(=O)NC(C)C)c(Cl)cc1F | 127 to 130 °C
CN1CCC(=O)C(C(c2ccccc2)c2ccccc2)C1 (configuration not stated) | 127 to 128 °C
COc1ccc(-c2nc(N)sc2-c2ccnc(N)c2)cc1 | 251 to 254 °C

Source: a melting point compilation (Tetko et al.; mined from patent text by program, amines drawn as free bases though some values may be those of a salt)
